Results from EP0419676B1, “THIONAPHTHALENE DERIVATIVES, METHOD OF PRODUCING THE SAME, AND ANTIALLERGIC AGENT CONTAINING THE SAME” (TEIJIN LIMITED, priority 1989, dated 1990).
Read-outs that look alike come from different tables or passages of the source.

What was measured:
[1] = test system: peritoneal mast cells of rat; assay: Histamine release from peritoneal mast cells induced by Compound 48/80 (non-allergic release); type: cell-based, Sprague-Dawley strain male rat; conditions: for inhibition at 10 µM: Rattus norvegicus, Mast cell, 10 min, read-out: Inhibitory ratio (%) histamine release
Protocol: (§1) To a Sprague-Dawley strain male rat (10 weeks or older) was intraperitoneally administered, under ether anesthesia, a diluted rat anti-DNP-As IgE serum at 2 ml/kg. After 16 hours, cells were recovered by washing intraperitoneally with a Tyrode solution containing 0.5% heparin (Ca⁺⁺, Mg⁺⁺, free). Mast cells (5 x 10⁴) separated by overlying in the 30% Ficoll/Tyrode solution and centrifugation were reliberated into the Tyrode solution (Ca⁺⁺, Mg⁺⁺) and incubated with the addition of the drug solution shown in Table 3-1, for 10 minutes, and then DNP-As and phosphatidylserine were added to final concentrations of 20 µg/ml and 25 µg/ml, respectively, followed by incubation for 10 minutes. The reaction was stopped by ice-cooling, and the histamine release in the supernatant was determined by fluorophotometry. Regarding the non-allergy release, 5 x 10⁴ of mast cells were investigated by incubation with 0.5 µg/ml of Compound 48/80 for 10 minutes, after the addition of the drug solution shown in Table 3-2.

Lipoxygenase = target: T1, Lipoxygenase (Homo sapiens, UniProt P09917); assay: Lipoxygenase inhibitory activity evaluation: LTB4 and 5-HETE production in A23187-stimulated whole blood; type: cell-based, healthy man; conditions: 10⁻⁵ M, A23187 25 µM; for Amount of LTB₄ produced: no addition 125; for Amount of 5-HETE produced: no addition 130
T1 construct: heparin-treated vein blood of a healthy person; from tissue; host or cells: human heparinised venous whole blood (leukocytes)
T1 sequence (P09917 1-674): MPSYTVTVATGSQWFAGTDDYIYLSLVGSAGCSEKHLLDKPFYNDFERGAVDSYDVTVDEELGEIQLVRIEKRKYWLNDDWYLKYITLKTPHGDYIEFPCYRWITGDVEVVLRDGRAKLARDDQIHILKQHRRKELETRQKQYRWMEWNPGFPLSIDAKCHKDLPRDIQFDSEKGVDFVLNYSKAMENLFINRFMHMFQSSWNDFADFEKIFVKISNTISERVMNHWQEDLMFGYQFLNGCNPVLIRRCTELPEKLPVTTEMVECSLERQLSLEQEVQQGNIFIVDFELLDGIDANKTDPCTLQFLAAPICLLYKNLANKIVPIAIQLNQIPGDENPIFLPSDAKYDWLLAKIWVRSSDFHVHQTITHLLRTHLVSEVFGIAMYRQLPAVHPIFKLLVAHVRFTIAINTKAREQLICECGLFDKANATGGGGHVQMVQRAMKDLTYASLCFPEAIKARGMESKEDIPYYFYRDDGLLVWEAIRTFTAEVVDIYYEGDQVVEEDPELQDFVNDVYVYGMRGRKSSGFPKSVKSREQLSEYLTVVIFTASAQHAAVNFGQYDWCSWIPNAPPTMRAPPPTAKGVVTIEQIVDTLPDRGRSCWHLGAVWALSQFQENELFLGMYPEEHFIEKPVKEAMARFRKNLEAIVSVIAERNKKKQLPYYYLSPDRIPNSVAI
Protocol: To 1 ml of heparin-treated vein blood of a healthy person without an administration of drugs was added 1 µl of a DMSO solution of the drug test sample listed in Table 5 (final 10⁻⁵ M), and after treatment at 37°C for 5 minutes, 5 µl of a DMSO solution of A23187 was added (final 25 µM) and the treatment carried out at 37°C for 15 minutes, followed by ice-cooling. After the addition of 10 µl of a DMSO solution of 100 ng of 15-HETE as the internal standard substance for quantitation, 0.8 ml of acetonitrile was added, and the precipitates formed were removed by centrifugation. Then, LTB₄ and 5-HETE in the supernatant were subjected to HPLC separation and quantitation (ref. F.J. Sweeney, et al., Prostaglandins Leukotrienes & Med., 28, 73 (1987)).

[2] = test system: Rat homologous PCA reaction; assay: Rat homologous PCA reaction; type: in vivo, Sprague-Dawley strain male rat; conditions: p.o., 1 hour before antigen
Protocol: The back of a Sprague-Dawley strain male rat (6 - 8 w) was depilated, and at one site on both sides thereof, 0.1 ml of a rat anti-ovalbumin IgE serum diluted with physiological saline was intradermally injected under ether anesthesia. After 48 hours, 25 mg/kg of ovalbumin, 25 mg/kg of Evans Blue were intravenously administered to induce the PCA reaction, and after 30 minutes, the skin was peeled off, dipped in a mixture of 0.3% Na₂SO₄·10H₂O/Acetate (3:7), and the dye amount infiltrated was quantitated by absorbance at 620 nm. The drug listed in Table 4 was suspended in 5% gum arabic solution and orally administered 1 hour before the antigen administration.

[3] = test system: anti-TNP IgE antibody production; assay: IgE antibody production suppressive effect: anti-TNP IgE production by cultured spleen cells of TNP-KLH-immunized mouse; type: cell-based, BALB/C mouse
Protocol: An 8 weeks old BALB/C mouse (♀) was immunized by an intraperitoneal injection of 10 µg of TNP-KLH (trinitrophenyl-key hole limpet hemocyanine) and 2 mg of aluminum hydroxide gel, and after 3 weeks, 1 µg of TNP-KLH and 2 mg of aluminum hydroxide gel were boosted, and 4 weeks later, the spleen was enucleated.
The spleen cells (6 x 10⁶) were cultured together with 10 ng/ml of TNP-KLH, in the presence or non-presence of the compound of the present invention (10⁻⁵ to 10⁻⁷ M), in 1 ml of RPMI-1640 medium (containing 10% fetal bovine serum) for 2 days, followed by washing to remove the antigen and the drug, and the washed cells were resuspended in a fresh medium containing no antigen and further cultured for 5 days. All cultivations were performed under 5% CO₂ at 37°C. After completion of the culturing, the supernatant was recovered, and the concentration of anti-TNP IgE or anti-TNP IgG antibody was determined by an antigen and isotype specific immunoassay. […]
The values in the brackets ( ) indicate the values of the spontaneous IgE production amount observed when TNP-KLH was not added, and represent the IgE production dependency on the antigen.
The same experimental methods were used for the compounds shown below, and IgE antibody production suppressive effects were evaluated. […] (Exemplary compound VI - (1)): methyl (6,7-dimethoxy-2-naphthylthio)acetate (Exemplary compound V - (4)): N-(2-methoxycarbonylphenyl)-(6,7-dihydroxy-2-naphthylthio)acetamide (Exemplary compound V - (2)): N-tetrazolyl(6,7-dihydroxy-2-naphthylthio)acetamide Table 2

[4] = test system: peritoneal mast cells of rat; assay: Histamine release from IgE-sensitized peritoneal mast cells, DNP-As antigen (allergic release); type: cell-based, Sprague-Dawley strain male rat
Protocol: as §1, with “fluorophotometry.” for “fluorophotometry. Regarding the non-allergy release, 5 x 10⁴ of mast cells were investigated by incubation with 0.5 µg/ml of Compound 48/80 for 10 minutes, after the addition of the drug solution shown in Table 3-2.”

[5] = Experiment 2, 10⁻⁵ M, Compound 48/80 0.5 µg/ml
[6] = Experiment 1, 10⁻⁵ M, Compound 48/80 0.5 µg/ml

COC(=O)CSc1ccc2cc(OC(C)=O)c(OC(C)=O)cc2c1 [Exemplary compound VI-(2), Methyl (6,7-diacetoxy-2-naphthyithio)acetate]
Inhibitory ratio (%) histamine release [1, 5]: 2.6%

COC(=O)C(C)Sc1ccc2cc(O)c(O)cc2c1 (stereo not shown) [Exemplary compound VII-(1), Methyl 2-(6,7-dihydroxy-2-naphthylthio)-propionate]
5-HETE (Inhibitory ratio %) (Lipoxygenase): 69%
LTB₄ (Inhibitory ratio %) (Lipoxygenase): 72%
Amount of LTB₄ produced (Lipoxygenase): 35 ng/ml/plasma
Amount of 5-HETE produced (Lipoxygenase): 40 ng/ml/plasma

COc1ccc(/C=C/C(=O)Nc2ccccc2C(=O)O)cc1OC [Tranilast, reference compound]
inhibition at 10 µM [1, 6]: 24.4%
Suppressive ratio (%) Experiment 1 ([2]; 200 mg/kg): 24.2%
Suppressive ratio (%) Experiment 2 ([2]; 200 mg/kg): 26.9%

O=C(CSc1ccc2cc(O)c(O)cc2c1)Nc1nnn[nH]1 [Exemplary compound V-(2), N-5-tetrazolyl(6,7-dihydroxy-2-naphthylthio)-acetamide]
inhibition at 10 µM [1, 6]: 2.2%
Suppressive ratio (IgE antibody production) ([3]; 10⁻⁷ M): 11%
Suppressive ratio (%) Experiment 1 ([2]; 25 mg/kg): -0.3%

COC(=O)CSc1ccc2cc(OC(=O)OC(C)C)c(OC(=O)OC(C)C)cc2c1 [Exemplary compound VI-(4), Methyl (6,7-diisopropoxycarbonyloxy-2-naphthylthio)acetate]
inhibition at 10 µM [1, 5]: 17.8%

COC(=O)CSc1ccc2cc(OC(=O)OC)c(OC(=O)OC)cc2c1 [Exemplary compound VI-(3), Methyl (6,7-dimethoxycarbonyloxy-2-naphthylthio)acetate]
inhibition at 10 µM [1, 5]: 7.5%

COC(=O)CSc1ccc2cc(OC)c(OC)cc2c1 [Exemplary compound VI-(1), Methyl (6,7-dimethoxy-2-naphthylthio)acetate]
inhibition at 10 µM [1, 5]: 3.7%
Suppressive ratio (IgE antibody production) ([3]; 10⁻⁶ M): 69%

Oc1cc2ccc(SCc3ccccc3)cc2cc1O [II-(1)]
5-HETE (Inhibitory ratio %) (Lipoxygenase): 66%
LTB₄ (Inhibitory ratio %) (Lipoxygenase): 76%
Amount of LTB₄ produced (Lipoxygenase): 30 ng/ml/plasma
Amount of 5-HETE produced (Lipoxygenase): 45 ng/ml/plasma

O=C(CSc1ccc2cc(O)c(O)cc2c1)Nc1ccccc1-c1nnn[nH]1 [Exemplary compound V-(5), N-[2-(5-tetrazolyl)phenyl](6,7-dihydroxy-2-naphthylthio)acetamide]
inhibition at 10 µM [1, 6]: 28.1%
Suppressive ratio (%) Experiment 2 ([2]; 25 mg/kg): 16.5%

COC(=O)c1ccccc1NC(=O)CSc1ccc2cc(O)c(O)cc2c1 [Exemplary compound V-(4), N-(2-methoxycarbonylphenyl)(6,7-dihydroxy-2-naphthylthio)acetamide]
inhibition at 10 µM [1, 6]: -0.8%
Suppressive ratio (IgE antibody production) ([3]; 10⁻⁶ M): 7%
Suppressive ratio (IgE antibody production) ([3]; 10⁻⁷ M): 26%
Suppressive ratio (%) Experiment 1 ([2]; 25 mg/kg): 0%

O=C(O)CSc1ccc2cc(O)c(O)cc2c1 [Exemplary compound IV-(2), (6,7-Dihydroxy-2-naphthylthio)acetic acid]
suppressive action against non-allergy histamine release (in words) [1]: weak suppressive actions
suppressive action against allergy histamine release (in words) [4]: suppressive actions

O=C(CSc1ccc2cc(O)c(O)cc2c1)NCCCCN1CCN(C(c2ccc(F)cc2)c2ccc(F)cc2)CC1 [Exemplary compound V-(6), 1-[4-[(6,7-dihydroxy-2-naphthylthio)acetylamino]-butyl]-4-[bis(4-fluorophenyl)methyl]piperazine]
inhibition at 10 µM [1, 6]: 5.9%
Suppressive ratio (%) Experiment 2 ([2]; 25 mg/kg): 15.9%

O=C(CSc1ccc2cc(O)c(O)cc2c1)Nc1ccccc1C(=O)O [Exemplary compound V-(3), N-(2-carboxyphenyl)(6,7-dihydroxy-2-naphthylthio)acetamide]
inhibition at 10 µM [1, 6]: 1.3%
Suppressive ratio (%) Experiment 1 ([2]; 25 mg/kg): -18.0%
